The experiment addresses T1, Kras and SOS1 (biotin-tagged human Kras loaded with GDP, His-tagged human SOS1) (Homo sapiens, UniProt P01116, G12D).
T1 construct: made in house; host or cells: E. coli (stated for Kras only)
Kind of experiment: Protein-protein interaction inhibition between Kras and SOS1 (KrasGl2D-SOS PPI) using AlphaScreen. Particulars: AlphaScreen; biotin-tagged human Kras loaded with GDP, His-tagged human SOS1; read-out: KRAS G12D-SOS PPI IC50. It is filed as binding. An outline of the steps:
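Donor beads (nickel) hold His-SOS1; acceptor beads (streptavidin) hold biotin-Kras bound to GDP. Signal measured at 520-620 nm following 680 nm excitation.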

Starred links: 1 amine or outer side, 2 acyl side, 3 side chain; linkers in the order of their positions; H or OH if unused. Positions of bridges follow the written chain, without caps; N, C: chain ends. Non-standard residues stand in square brackets, D forms with d. Residues, ends and D or L forms follow the SMILES beside them. *: point of attachment. hPhe(3-Cl-4-CF3) = N[C@@H](CCc1ccc(C(F)(F)F)c(Cl)c1)C(=O)O; hPhe(3-F,4-CF3) = N[C@@H](CCc1ccc(C(F)(F)F)c(F)c1)C(=O)O; NMePhe(4-CF3) = CN[C@@H](Cc1ccc(C(F)(F)F)cc1)C(=O)O; NMePhe(3,4-F2) = CN[C@@H](Cc1ccc(F)c(F)c1)C(=O)O; Pro(cis-4-Ph) = O=C(O)[C@@H]1C[C@H](c2ccccc2)CN1; NMePhe(4-Cl) = CN[C@@H](Cc1ccc(Cl)cc1)C(=O)O; X35 = CN([C@@](C)(Cc1ccccc1)C(=O)[*:2])[*:1]; NMedβ3hAla = C[C@H](CC(=O)[*:2])N(C)[*:1]; NMePhe(2-F) = CN[C@@H](Cc1ccccc1F)C(=O)O; NMeGly(cPent) = CN[C@H](C(=O)O)C1CCCC1; Phe(3-I) = N[C@@H](Cc1cccc(I)c1)C(=O)O; Pro(4,4-F2) = O=C(O)[C@@H]1CC(F)(F)CN1; NMeY = CN[C@@H](Cc1ccc(O)cc1)C(=O)O; NMeCha = CN[C@@H](CC1CCCCC1)C(=O)O; NMeChg = CN[C@H](C(=O)O)C1CCCCC1; NMeF = CN[C@@H](Cc1ccccc1)C(=O)O; NMeI = CC[C@H](C)[C@H](NC)C(=O)O; NMeD = CN[C@@H](CC(=O)O)C(=O)O; NMeL = CN[C@@H](CC(C)C)C(=O)O; NMeV = CN[C@H](C(=O)O)C(C)C; d(β3hA) = C[C@@H](N)CC(=O)O; NMeA = CN[C@@H](C)C(=O)O; Nle = CCCC[C@H](N)C(=O)O; Piperidide = C1CCN(*)CC1; dNMeA = CN[C@H](C)C(=O)O; Ac5c = NC1(C(=O)O)CCCC1; Aze = O=C(O)[C@@H]1CCN1; Ac4c = NC1(C(=O)O)CCC1; Sar = CNCC(=O)O

T1 sequence (P01116 1-188 isoform P01116-2 G12D): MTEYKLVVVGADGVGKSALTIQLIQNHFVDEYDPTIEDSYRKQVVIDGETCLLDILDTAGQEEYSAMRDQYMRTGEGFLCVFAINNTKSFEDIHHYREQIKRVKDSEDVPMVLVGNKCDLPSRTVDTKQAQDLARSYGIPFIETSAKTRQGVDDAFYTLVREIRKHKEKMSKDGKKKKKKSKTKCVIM

Usually IC50 stands for the point on the concentration scale where inhibition reaches its midpoint. Regarding `CC[C@H](C)[C@@H]1NC(=O)[C@H](CC(C)C)N(C)C(=O)C[C@@H](C(=O)N2CCCCC2)N(C)C(=O)[C@H](C2CCCCC2)N(C)C(=O)C2(CCCC2)NC(=O)[C@@H]2C[C@H](c3ccccc3)CN2C(=O)[C@H](CCc2ccc(C(F)(F)F)c(Cl)c2)NC(=O)CN(C)C(=O)[C@H](CC2CCCCC2)N(C)C(=O)[C@@H]2CCN2C(=O)[C@H](C)N(C)C1=O` [Compound 1053] ([NMeL]I[NMeA][Aze][NMeCha][Sar][hPhe(3-Cl-4-CF3)][Pro(cis-4-Ph)][Ac5c][NMeChg][NMeD]-Piperidide; lactam N-11), the IC50 was determined as 0.0067 µM.
The value for `CCCC[C@@H]1NC(=O)[C@H](Cc2cccc(I)c2)NC(=O)CN(C)C(=O)[C@H](Cc2ccc(OC)cc2)N(C)C(=O)[C@@H]2CCN2C(=O)CN(C)C(=O)[C@H]([C@@H](C)CC)NC(=O)[C@H](CC(C)C)N(C)C(=O)C[C@@H](C(=O)N2CCCCC2)N(C)C(=O)[C@H](CC(C)C)NC(=O)[C@](C)(Cc2ccccc2)N(C)C1=O` [Compound 1058] ([NMeL]I[Sar][Aze][NMeY](Me)[Sar][Phe(3-I)][Nle][X35]L[NMeD]-Piperidide; lactam N-11) was 0.014 µM.
The value for `CC[C@H](C)[C@@H]1NC(=O)[C@H](CC(C)C)N(C)C(=O)C[C@@H](C(=O)N2CCCCC2)N(C)C(=O)[C@H](CC(C)C)N(C)C(=O)C2(CCCC2)NC(=O)[C@@H]2CCCN2C(=O)[C@H](CCc2ccc(C(F)(F)F)c(F)c2)NC(=O)CN(C)C(=O)[C@H](Cc2ccc(Cl)cc2)N(C)C(=O)CN(C)C(=O)CN(C)C1=O` [Compound 1061] ([NMeL]I[Sar][Sar][NMePhe(4-Cl)][Sar][hPhe(3-F,4-CF3)]P[Ac5c][NMeL][NMeD]-Piperidide; lactam N-11) was 0.014 µM; that for `CC[C@H](C)[C@@H]1NC(=O)[C@H](CC(C)C)N(C)C(=O)C[C@@H](C(=O)N(C)C)N(C)C(=O)[C@H](C2CCCC2)N(C)C(=O)C2(CCCC2)NC(=O)[C@H](Cc2ccc(Cl)cc2)N(C)C(=O)[C@H](CCc2ccc(C(F)(F)F)c(Cl)c2)NC(=O)CN(C)C(=O)[C@H](CC2CCCCC2)N(C)C(=O)[C@@H]2CCN2C(=O)[C@H](C)N(C)C1=O` [Compound 1063] ([NMeL]I[NMeA][Aze][NMeCha][Sar][hPhe(3-Cl-4-CF3)][NMePhe(4-Cl)][Ac5c][NMeGly(cPent)][NMeD]-NMe2; lactam N-11) was 0.043 µM.
With `CC[C@H](C)[C@@H]1NC(=O)[C@H](C)N(C)C(=O)C[C@@H](C)NC(=O)[C@H](C2CCCC2)N(C)C(=O)C2(CCCC2)NC(=O)[C@@H]2CCCN2C(=O)[C@H](CCc2ccc(C(F)(F)F)c(Cl)c2)NC(=O)[C@@H](C)N(C)C(=O)[C@H](Cc2ccc(Cl)cc2)N(C)C(=O)CN(C)C(=O)CN(C)C1=O` [Compound 1065] (cyclo([Ac5c][NMeGly(cPent)][d(β3hA)][NMeA]I[Sar][Sar][NMePhe(4-Cl)][dNMeA][hPhe(3-Cl-4-CF3)]P)), the concentration for half-maximal inhibition (IC50) was found to be 0.07 µM.
With `CC[C@H](C)[C@@H]1NC(=O)[C@H](CC(C)C)N(C)C(=O)C[C@@H](C)N(C)C(=O)[C@H]([C@@H](C)CC)N(C)C(=O)C2(CCC2)NC(=O)[C@@H]2CC(F)(F)CN2C(=O)[C@H](CCc2ccc(C(F)(F)F)c(Cl)c2)NC(=O)CN(C)C(=O)[C@H](Cc2ccc(C(F)(F)F)cc2)N(C)C(=O)CN(C)C(=O)CN(C)C1=O` [Compound 1074] (cyclo([Ac4c][NMeI][NMedβ3hAla][NMeL]I[Sar][Sar][NMePhe(4-CF3)][Sar][hPhe(3-Cl-4-CF3)][Pro(4,4-F2)])), the half-inhibitory concentration (IC50) amounted to 0.011 µM.
`CC[C@H](C)[C@@H]1NC(=O)[C@H](C)N(C)C(=O)C[C@@H](C)NC(=O)[C@H](C2CCCC2)N(C)C(=O)C2(CCCC2)NC(=O)[C@@H]2CCCN2C(=O)[C@H](CCc2ccc(C(F)(F)F)c(Cl)c2)NC(=O)[C@@H](C)N(C)C(=O)[C@H](Cc2ccc(F)c(F)c2)N(C)C(=O)CN(C)C(=O)CN(C)C1=O` [Compound 1075] (cyclo([Ac5c][NMeGly(cPent)][d(β3hA)][NMeA]I[Sar][Sar][NMePhe(3,4-F2)][dNMeA][hPhe(3-Cl-4-CF3)]P)): the IC50 was 0.14 µM.
The value for `CC[C@H](C)[C@@H]1NC(=O)[C@H](C)N(C)C(=O)C[C@@H](C)NC(=O)[C@H](C2CCCC2)N(C)C(=O)C2(CCCC2)NC(=O)[C@@H]2CCCN2C(=O)[C@H](CCc2ccc(C(F)(F)F)c(Cl)c2)NC(=O)CN(C)C(=O)[C@H](Cc2ccccc2F)N(C)C(=O)[C@@H]2CCCN2C(=O)CN(C)C1=O` [Compound 1077] (cyclo([Ac5c][NMeGly(cPent)][d(β3hA)][NMeA]I[Sar]P[NMePhe(2-F)][Sar][hPhe(3-Cl-4-CF3)]P)) was 0.034 µM; that for `CC[C@H](C)[C@@H]1NC(=O)[C@H](C)N(C)C(=O)C[C@@H](C)NC(=O)[C@H](C(C)C)N(C)C(=O)[C@H](Cc2ccccc2)N(C)C(=O)[C@H](CC(C)C)N(C)C(=O)[C@H](CCc2ccc(C(F)(F)F)c(Cl)c2)NC(=O)CN(C)C(=O)[C@H](Cc2ccc(Cl)cc2)N(C)C(=O)CN(C)C(=O)CN(C)C1=O` [Compound 1079] (cyclo(I[Sar][Sar][NMePhe(4-Cl)][Sar][hPhe(3-Cl-4-CF3)][NMeL][NMeF][NMeV][d(β3hA)][NMeA])) was 0.015 µM.

(Values after patent US12371454B2, “Cyclic peptide compound having Kras inhibitory action” (priority 2019, dated 2025).)
